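96-well plates; 48 h exposure; 5 concentrations. Endpoints by linear interpolation between flanking doses. Not reached: highest tested concentration assigned. GI50 = concentration required for 50% inhibition of growth.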 The source made the active and inactive calls. Cut-off read from the data, not from the text of the source: active = GI50 up to about 1.1 µM and inactive = higher. Bounds are passed on as bounds.

Among the test systems are A549; CAKI-1; HCC 2998; HCT-116; HOP-62; LOX IMVI; Malme-3M; NCI-H23; OVCAR-3; OVCAR-5; OVCAR-8; SF-539; SK-MEL-28; SK-OV-3; U-251.
Holding throughout (experiment): growth of human tumour cells (NCI), 48 h

On to `O=S(O)CCCSSCCCCSSCCCS(=O)O`, for which the GI50 with A549, in the assay with CAKI-1, in the assay on HCC 2998, with HCT-116, with HOP-62 and with LOX IMVI was > 100 µM (inactive) in each case. The GI50 in the assay with Malme-3M, in the assay on NCI-H23, with OVCAR-3, in the assay on OVCAR-5, with OVCAR-8 and in the assay with SF-539 was > 100 µM (inactive) each time. Moreover, the GI50 with SK-MEL-28, with SK-OV-3 and in the assay with U-251 was > 100 µM (inactive) in each case.
As to `COC(=O)C1(C)C=C(Nc2ccccc2)C(=O)N1c1ccccc1` (centres undefined), the GI50 with A549, in the assay with CAKI-1, with HCC 2998, with HCT-116, in the assay with HOP-62 and in the assay on LOX IMVI was > 100 µM (inactive) throughout. Moreover, the GI50 in the assay on Malme-3M, in the assay on NCI-H23, in the assay with OVCAR-3, with OVCAR-5, in the assay with OVCAR-8 and in the assay on SF-539 was > 100 µM (inactive) throughout. The GI50 in the assay on SK-MEL-28, in the assay with SK-OV-3 and in the assay on U-251 was > 100 µM (inactive) throughout.
As to `CCOc1ccc(N2C(=O)C3c4[nH]c5ccccc5c4C4CCC(C(C)(C)C)CC4C3C2=O)cc1` (centres undefined), the GI50 in the assay with A549 is 62.4 µM (inactive); with HCC 2998 it was 28.8 µM (inactive); in the assay on HCT-116 it was 49.2 µM (inactive); in the assay with HOP-62 it was > 100 µM (inactive); with Malme-3M it was > 100 µM (inactive); in the assay on NCI-H23, 82.8 µM (inactive). Further, the GI50 was 97.1 µM (inactive) in the assay on OVCAR-8; > 100 µM (inactive) with SF-539; > 100 µM (inactive) in the assay on SK-MEL-28; > 100 µM (inactive) with SK-OV-3; > 100 µM (inactive) in the assay on U-251.
Take `C=CCC1(C)CCCCC1(O)C[S+]([O-])c1ccccc1` (centres undefined): the GI50 in the assay on A549, with CAKI-1, in the assay on HCC 2998, with HCT-116, with HOP-62 and in the assay with LOX IMVI was > 100 µM (inactive) each time. For the same compound, the GI50 in the assay with Malme-3M, in the assay on OVCAR-3, in the assay on OVCAR-5, in the assay with OVCAR-8, with SF-539 and with SK-MEL-28 was > 100 µM (inactive) throughout. The GI50 in the assay with SK-OV-3 and in the assay on U-251 was > 100 µM (inactive) each time.
Turning to `O=c1ccc2ccc(O)c3c4c(O)ccc5ccc(=O)c(c1c23)c54`, the GI50 in the assay on A549 is 2.95 µM (inactive); in the assay with HCT-116, 1.43 µM (inactive); with HOP-62, 2.72 µM (inactive); in the assay with LOX IMVI, 1.18 µM (inactive); in the assay with Malme-3M, 0.371 µM (active); in the assay with NCI-H23, 1.66 µM (inactive). For the same compound, the GI50 in the assay with OVCAR-3 was 0.964 µM (active); in the assay on OVCAR-8, 1.46 µM (inactive); with SF-539, 1.69 µM (inactive); with SK-MEL-28, 1.14 µM (inactive); in the assay on SK-OV-3, 4.02 µM (inactive); in the assay with U-251, 1.29 µM (inactive).
Take `O=C1C[C@@H]2C(COC(=O)c3ccccc3)N(OCc3ccccc3)C[C@@H]2O1` (some centres undefined): the GI50 with A549, with HCC 2998, with HCT-116, with HOP-62, with LOX IMVI and in the assay with Malme-3M was > 100 µM (inactive) each time. Besides, the GI50 in the assay on NCI-H23, with OVCAR-3, with OVCAR-5, in the assay on OVCAR-8, with SF-539 and in the assay with SK-MEL-28 was > 100 µM (inactive) in each case. Moreover, the GI50 in the assay with SK-OV-3 and in the assay with U-251 was > 100 µM (inactive) throughout.
With `COc1ccccc1-c1cc(=O)c2ccccc2[nH]1`, the GI50 with A549 is 54.3 µM (inactive); in the assay on HCC 2998, 72.6 µM (inactive); in the assay on HCT-116 it was > 100 µM (inactive); in the assay with HOP-62 it was > 100 µM (inactive); in the assay on LOX IMVI, > 100 µM (inactive); in the assay with Malme-3M it was 49 µM (inactive). Besides, the GI50 with NCI-H23 was > 100 µM (inactive); in the assay on OVCAR-3 it was > 100 µM (inactive); in the assay with OVCAR-8 it was > 100 µM (inactive); in the assay on SF-539 it was > 100 µM (inactive); in the assay on SK-MEL-28 it was > 100 µM (inactive); with SK-OV-3 it was 73.6 µM (inactive). For the same compound, the GI50 with U-251 is > 100 µM (inactive).
Turning to `C=C[C@@H](C)[C@]1(C(=O)OC)CCCC12OCCO2`, the GI50 with A549, in the assay on CAKI-1, in the assay with HCC 2998, in the assay with HCT-116, in the assay with HOP-62 and with LOX IMVI was > 100 µM (inactive) each time. The GI50 with Malme-3M, with OVCAR-3, with OVCAR-5, in the assay on OVCAR-8, in the assay with SF-539 and with SK-MEL-28 was > 100 µM (inactive) throughout. Besides, the GI50 with SK-OV-3 and with U-251 was > 100 µM (inactive) throughout.
For the compound `O=C(N/N=C1/C(=O)N(c2ccc(Cl)cc2Cl)C(=O)C(=O)C1c1nc2ccccc2o1)c1ccccc1O` (centres undefined), the GI50 was 33 µM (inactive) in the assay on A549; 34.8 µM (inactive) in the assay with CAKI-1; 37.2 µM (inactive) with HCT-116; 28.7 µM (inactive) in the assay on HOP-62; 27.3 µM (inactive) with Malme-3M; 25.7 µM (inactive) with NCI-H23. Also, the GI50 in the assay with OVCAR-3 was 21.8 µM (inactive); in the assay with OVCAR-5, > 100 µM (inactive); in the assay with OVCAR-8 it was 60.4 µM (inactive); with SF-539, 29.4 µM (inactive); in the assay on SK-MEL-28 it was 29.6 µM (inactive); in the assay with SK-OV-3, 33 µM (inactive). Also, in the assay on U-251, the GI50 was > 10 µM (inactive).
`Oc1ccc2c(c1)CC[N+]1=C2CCC2CCCC21` (centres undefined) [QUINDONIUM BROMIDE]: the GI50 with A549, with CAKI-1, with HCC 2998, with HCT-116, in the assay on LOX IMVI and with NCI-H23 was > 100 µM (inactive) each time. Also, the GI50 with OVCAR-3, with OVCAR-5, in the assay with OVCAR-8, in the assay with SF-539, in the assay with SK-MEL-28 and in the assay with SK-OV-3 was > 100 µM (inactive) in each case.
For the compound `N#CCCN(CCC#N)c1ccc(/C=N\c2nc(-c3ccccc3)cs2)cc1`, the GI50 in the assay with A549 was > 100 µM (inactive); with CAKI-1, > 100 µM (inactive); in the assay with HCT-116, > 100 µM (inactive); in the assay on HOP-62, 84.3 µM (inactive); in the assay with LOX IMVI, > 100 µM (inactive); in the assay with Malme-3M it was > 100 µM (inactive). Moreover, the GI50 with NCI-H23, with OVCAR-3, with OVCAR-5, in the assay on OVCAR-8, in the assay on SF-539 and in the assay on SK-MEL-28 was > 100 µM (inactive) throughout. Besides, the GI50 in the assay with SK-OV-3 is > 100 µM (inactive).
For `CCCCCCCCCCCCC(SCCNC(=O)CCNC(=O)C(O)C(C)(C)COP(=O)(O)OP(=O)(O)OCC1OC(n2cnc3c(N)ncnc32)C(O)C1OP(=O)(O)O)C(=O)NCC(N)=O` (centres undefined), the GI50 with A549 was > 100 µM (inactive); in the assay with HCC 2998, > 100 µM (inactive); with HCT-116, 41.3 µM (inactive); with HOP-62 it was > 100 µM (inactive); with LOX IMVI, > 100 µM (inactive); in the assay on Malme-3M, > 100 µM (inactive). The GI50 with NCI-H23 is > 100 µM (inactive); in the assay with OVCAR-3 it was > 100 µM (inactive); in the assay with OVCAR-5, > 100 µM (inactive); in the assay with OVCAR-8 it was > 100 µM (inactive); with SF-539, 52.2 µM (inactive); in the assay on SK-MEL-28 it was > 100 µM (inactive). Besides, the GI50 with SK-OV-3 is 18.6 µM (inactive); in the assay on U-251, 34.9 µM (inactive).
`O=C(N/C(=C\c1ccc(Br)cc1)c1nc2ccccc2s1)c1ccccc1`: the GI50 was 61.4 µM (inactive) in the assay with A549; > 100 µM (inactive) in the assay on CAKI-1; 53 µM (inactive) in the assay on HCT-116; 65.2 µM (inactive) with LOX IMVI; > 100 µM (inactive) in the assay with Malme-3M; 25.5 µM (inactive) with NCI-H23. Also, the GI50 was > 100 µM (inactive) with OVCAR-3; > 100 µM (inactive) in the assay on OVCAR-5; 89.9 µM (inactive) with OVCAR-8; 88.9 µM (inactive) with SF-539; > 100 µM (inactive) in the assay on SK-MEL-28; > 100 µM (inactive) with SK-OV-3. Moreover, the GI50 with U-251 is 56 µM (inactive).
As to `O=C(NC1CCCCC1)NS(=O)(=O)c1ccc2c(c1)CCC2` [GLYHEXAMIDE], the GI50 in the assay on A549, with HCC 2998, with LOX IMVI, in the assay with Malme-3M, in the assay with NCI-H23 and with OVCAR-3 was > 100 µM (inactive) in each case. Besides, the GI50 with OVCAR-5, in the assay on OVCAR-8, with SF-539, in the assay with SK-MEL-28, with SK-OV-3 and in the assay with U-251 was > 100 µM (inactive) throughout.
Regarding `COC(=O)[C@H]1CC(=O)C=C2CCCC21` (some centres undefined), the GI50 in the assay with A549, in the assay on CAKI-1, in the assay on HCC 2998, in the assay on HCT-116, in the assay on HOP-62 and with LOX IMVI was > 100 µM (inactive) each time. For the same compound, the GI50 in the assay on Malme-3M, in the assay with NCI-H23, in the assay on OVCAR-3, in the assay with OVCAR-8, with SF-539 and with SK-MEL-28 was > 100 µM (inactive) in each case. The GI50 in the assay with SK-OV-3 and in the assay with U-251 was > 100 µM (inactive) throughout.

The record behind these values is ChEMBL document CHEMBL1201862, “PubChem BioAssay data set” (2004).
